Measured values taken from patent US7259140B2, “Heparin-binding peptides and uses thereof” (Thomas Jefferson University, priority 2003, dated 2007).
Ends that are not written are not given here.

Columns and labels:
Format in all cases: biochemical, human
[1] = tested on: anti-Factor Xa Activity of Unfractionated Heparin; assay: Anti-Factor Xa assay: neutralization of unfractionated heparin in citrate or plasma in vitro; details: for Unfractionated Heparin Neutralized: UFH 0.7 U/ml
Procedure, shortened: (§1)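 Chromogenic anti-Factor Xa kit run with UFH, enoxaparin (Lovenox) or danaparoid (Orgaran) in 0.32% citrate or citrated plasma from three volunteers. Heparin/ATIII complex formed, peptide added, then Factor Xa and dye substrate; absorbance at 405 nm, inversely proportional to remaining anti-Factor Xa activity.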

[2] = tested on: anti-Factor Xa Activity of the Low Molecular Weight Heparin Lovenox ®; assay: Anti-Factor Xa assay (Stachrom Heparin kit): neutralization of Lovenox in citrate or plasma in vitro; details: for Lovenox ® Neutralized: Lovenox 0.7 U/ml; for anti-Factor Xa activity of LMWH neutralized: 12 μg/ml, plasma; for anti-LMWH effect in citrate compared with plasma: Table 2A
Procedure, shortened: as §1

[3] = tested on: Lovenox ® Activity in Blood from Patients Treated with Lovenox ®; assay: Neutralizing Lovenox activity in blood from patients treated with Lovenox (anti-Factor Xa assay); details: for Lovenox ® Neutralized: Peptide 12 μg/ml
Procedure, shortened: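 Blood came from consenting volunteers already on Lovenox® therapy. Neutralizing peptides were tested as a dose response from 1–60 μg/ml. Each point is mean ± SD of triplicate analyses on one patient's blood sample.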

[4] = blood of Lovenox-treated Patient Number 1
[5] = blood of Lovenox-treated Patient Number 2
[6] = blood of Lovenox-treated Patient Number 3
[7] = blood of Lovenox-treated Patient Number 4
[8] = blood of Lovenox-treated Patient Number 5
[9] = blood of Lovenox-treated Patient Number 8
[10] = blood of Lovenox-treated Patient Number 9
[11] = blood of Lovenox-treated Patient Number 10
[12] = blood of Lovenox-treated Patient Number 11

Substance: ARKKAAKAARKKAAKAARKKAAKAVLVLVLVL [(ARKKAAKA)3VLVLVLVL]
- effectiveness in neutralizing UFH [1]: most effective peptide
- Unfractionated Heparin Neutralized ([1]; 1 μg/ml Peptide, A Plasma): 0.258 ± 0.153 U/ml
- Unfractionated Heparin Neutralized ([1]; 1 μg/ml Peptide, B Plasma): 0.247 ± 0.034 U/ml
- Unfractionated Heparin Neutralized ([1]; 1 μg/ml Peptide, C Plasma): 0.116 ± 0.032 U/ml
- Unfractionated Heparin Neutralized ([1]; 1 μg/ml Peptide, Citrate): 0.072 ± 0.042 U/ml
- Unfractionated Heparin Neutralized ([1]; 6 μg/ml Peptide, A Plasma): 0.580 ± 0.067 U/ml
- Unfractionated Heparin Neutralized ([1]; 6 μg/ml Peptide, B Plasma): 0.597 ± 0.046 U/ml
- Unfractionated Heparin Neutralized ([1]; 6 μg/ml Peptide, C Plasma): 0.582 ± 0.035 U/ml
- Unfractionated Heparin Neutralized ([1]; 6 μg/ml Peptide, Citrate): 0.651 ± 0.084 U/ml
- Unfractionated Heparin Neutralized ([1]; 12 μg/ml Peptide, A Plasma): 0.562 ± 0.050 U/ml
- Unfractionated Heparin Neutralized ([1]; 12 μg/ml Peptide, B Plasma): 0.586 ± 0.053 U/ml
- Unfractionated Heparin Neutralized ([1]; 12 μg/ml Peptide, C Plasma): 0.554 ± 0.049 U/ml
- Unfractionated Heparin Neutralized ([1]; 12 μg/ml Peptide, Citrate): 0.505 ± 0.049 U/ml
- Unfractionated Heparin Neutralized ([1]; 60 μg/ml Peptide, A Plasma): 0.535 ± 0.054 U/ml
- Unfractionated Heparin Neutralized ([1]; 60 μg/ml Peptide, B Plasma): 0.444 ± 0.019 U/ml
- Unfractionated Heparin Neutralized ([1]; 60 μg/ml Peptide, C Plasma): 0.539 ± 0.010 U/ml
- Unfractionated Heparin Neutralized ([1]; 60 μg/ml Peptide, Citrate): 0.528 ± 0.039 U/ml
- Unfractionated Heparin Neutralized ([1]; 120 μg/ml Peptide, A Plasma): 0.490 ± 0.049 U/ml
- Unfractionated Heparin Neutralized ([1]; 120 μg/ml Peptide, B Plasma): 0.279 ± 0.038 U/ml
- Unfractionated Heparin Neutralized ([1]; 120 μg/ml Peptide, C Plasma): 0.460 ± 0.057 U/ml
- Unfractionated Heparin Neutralized ([1]; 120 μg/ml Peptide, Citrate): 0.510 ± 0.117 U/ml
- rank as neutralizing agent of Lovenox [2]: most effective neutralizing agents
- Lovenox ® Neutralized ([2]; 1 μg/ml Peptide, A Plasma): 0.055 ± 0.041 U/ml
- Lovenox ® Neutralized ([2]; 1 μg/ml Peptide, B Plasma): 0.035 ± 0.009 U/ml
- Lovenox ® Neutralized ([2]; 1 μg/ml Peptide, C Plasma): 0.058 ± 0.054 U/ml
- Lovenox ® Neutralized ([2]; 1 μg/ml Peptide, Citrate): 0.082 ± 0.027 U/ml
- Lovenox ® Neutralized ([2]; 6 μg/ml Peptide, A Plasma): 0.292 ± 0.047 U/ml
- Lovenox ® Neutralized ([2]; 6 μg/ml Peptide, B Plasma): 0.189 ± 0.066 U/ml
- Lovenox ® Neutralized ([2]; 6 μg/ml Peptide, C Plasma): 0.202 ± 0.042 U/ml
- Lovenox ® Neutralized ([2]; 6 μg/ml Peptide, Citrate): 0.288 ± 0.045 U/ml
- Lovenox ® Neutralized ([2]; 12 μg/ml Peptide, A Plasma): 0.441 ± 0.058 U/ml
- Lovenox ® Neutralized ([2]; 12 μg/ml Peptide, B Plasma): 0.376 ± 0.001 U/ml
- Lovenox ® Neutralized ([2]; 12 μg/ml Peptide, C Plasma): 0.371 ± 0.031 U/ml
- Lovenox ® Neutralized ([2]; 12 μg/ml Peptide, Citrate): 0.412 ± 0.035 U/ml
- anti-Factor Xa activity of LMWH neutralized [2]: about 0.4 U/ml
- Lovenox ® Neutralized ([2]; 60 μg/ml Peptide, A Plasma): 0.588 ± 0.027 U/ml
- Lovenox ® Neutralized ([2]; 60 μg/ml Peptide, B Plasma): 0.561 ± 0.035 U/ml
- Lovenox ® Neutralized ([2]; 60 μg/ml Peptide, C Plasma): 0.532 ± 0.023 U/ml
- Lovenox ® Neutralized ([2]; 60 μg/ml Peptide, Citrate): 0.441 ± 0.010 U/ml
- Lovenox ® Neutralized ([2]; 120 μg/ml Peptide, A Plasma): 0.575 ± 0.057 U/ml
- Lovenox ® Neutralized ([2]; 120 μg/ml Peptide, B Plasma): 0.480 ± 0.035 U/ml
- Lovenox ® Neutralized ([2]; 120 μg/ml Peptide, C Plasma): 0.485 ± 0.022 U/ml
- Lovenox ® Neutralized ([2]; 120 μg/ml Peptide, Citrate): 0.463 ± 0.029 U/ml
- anti-LMWH effect in citrate compared with plasma [2]: neutralize the same amount of Lovenox® in citrate and plasma
- Lovenox/LMWH neutralization compared with protamine ([2]; low concentrations, in the presence of plasma): more effective than protamine
- effectiveness in neutralizing Lovenox in blood of patients [3]: most consistently effective
- Lovenox ® Neutralized [3, 4]: 0.213 U/ml
- Lovenox ® Neutralized [3, 5]: 0.252 U/ml
- Lovenox ® Neutralized [3, 6]: 0.302 U/ml
- Lovenox ® Neutralized [3, 7]: 0.439 U/ml
- Lovenox ® Neutralized [3, 8]: 0.265 U/ml
- Lovenox ® Neutralized [3, 9]: 0.268 U/ml
- Lovenox ® Neutralized [3, 10]: 0.478 U/ml
- Lovenox ® Neutralized [3, 11]: 0.436 U/ml
- Lovenox ® Neutralized [3, 12]: 0.398 U/ml

Substance: Protamine [reference compound]
- Unfractionated Heparin Neutralized ([1]; 1 μg/ml Peptide, A Plasma): 0.241 ± 0.026 U/ml
- Unfractionated Heparin Neutralized ([1]; 1 μg/ml Peptide, B Plasma): 0.268 ± 0.028 U/ml
- Unfractionated Heparin Neutralized ([1]; 1 μg/ml Peptide, C Plasma): 0.161 ± 0.030 U/ml
- Unfractionated Heparin Neutralized ([1]; 1 μg/ml Peptide, Citrate): 0.126 ± 0.042 U/ml
- anti-Factor Xa activity of UFH neutralized ([1]; 6 μg/ml): about 0.4 U/ml
- Unfractionated Heparin Neutralized ([1]; 6 μg/ml Peptide, A Plasma): 0.442 ± 0.012 U/ml
- Unfractionated Heparin Neutralized ([1]; 6 μg/ml Peptide, B Plasma): 0.423 ± 0.035 U/ml
- Unfractionated Heparin Neutralized ([1]; 6 μg/ml Peptide, C Plasma): 0.425 ± 0.012 U/ml
- Unfractionated Heparin Neutralized ([1]; 6 μg/ml Peptide, Citrate): 0.475 ± 0.017 U/ml
- Unfractionated Heparin Neutralized ([1]; 12 μg/ml Peptide, A Plasma): 0.466 ± 0.023 U/ml
- Unfractionated Heparin Neutralized ([1]; 12 μg/ml Peptide, B Plasma): 0.448 ± 0.041 U/ml
- Unfractionated Heparin Neutralized ([1]; 12 μg/ml Peptide, C Plasma): 0.405 ± 0.035 U/ml
- Unfractionated Heparin Neutralized ([1]; 12 μg/ml Peptide, Citrate): 0.429 ± 0.010 U/ml
- Unfractionated Heparin Neutralized ([1]; 60 μg/ml Peptide, A Plasma): 0.380 ± 0.037 U/ml
- Unfractionated Heparin Neutralized ([1]; 60 μg/ml Peptide, B Plasma): 0.387 ± 0.047 U/ml
- Unfractionated Heparin Neutralized ([1]; 60 μg/ml Peptide, C Plasma): 0.350 ± 0.019 U/ml
- Unfractionated Heparin Neutralized ([1]; 60 μg/ml Peptide, Citrate): 0.406 ± 0.023 U/ml
- Unfractionated Heparin Neutralized ([1]; 120 μg/ml Peptide, A Plasma): 0.372 ± 0.024 U/ml
- Unfractionated Heparin Neutralized ([1]; 120 μg/ml Peptide, B Plasma): 0.374 ± 0.034 U/ml
- Unfractionated Heparin Neutralized ([1]; 120 μg/ml Peptide, C Plasma): 0.310 ± 0.024 U/ml
- Unfractionated Heparin Neutralized ([1]; 120 μg/ml Peptide, Citrate): 0.374 ± 0.030 U/ml
- Lovenox ® Neutralized ([2]; 1 μg/ml Peptide, A Plasma): 0.038 ± 0.036 U/ml
- Lovenox ® Neutralized ([2]; 1 μg/ml Peptide, B Plasma): 0.086 ± 0.004 U/ml
- Lovenox ® Neutralized ([2]; 1 μg/ml Peptide, C Plasma): 0.070 ± 0.050 U/ml
- Lovenox ® Neutralized ([2]; 1 μg/ml Peptide, Citrate): 0.050 ± 0.016 U/ml
- Lovenox ® Neutralized ([2]; 6 μg/ml Peptide, A Plasma): 0.177 ± 0.033 U/ml
- Lovenox ® Neutralized ([2]; 6 μg/ml Peptide, B Plasma): 0.200 ± 0.026 U/ml
- Lovenox ® Neutralized ([2]; 6 μg/ml Peptide, C Plasma): 0.232 ± 0.065 U/ml
- Lovenox ® Neutralized ([2]; 6 μg/ml Peptide, Citrate): 0.256 ± 0.060 U/ml
- Lovenox ® Neutralized ([2]; 12 μg/ml Peptide, A Plasma): 0.232 ± 0.067 U/ml
- Lovenox ® Neutralized ([2]; 12 μg/ml Peptide, B Plasma): 0.249 ± 0.039 U/ml
- Lovenox ® Neutralized ([2]; 12 μg/ml Peptide, C Plasma): 0.285 ± 0.041 U/ml
- Lovenox ® Neutralized ([2]; 12 μg/ml Peptide, Citrate): 0.591 ± 0.032 U/ml
- anti-Factor Xa activity of LMWH neutralized [2]: about 0.25 U/ml
- Lovenox ® Neutralized ([2]; 60 μg/ml Peptide, A Plasma): 0.515 ± 0.066 U/ml
- Lovenox ® Neutralized ([2]; 60 μg/ml Peptide, B Plasma): 0.574 ± 0.022 U/ml
- Lovenox ® Neutralized ([2]; 60 μg/ml Peptide, C Plasma): 0.465 ± 0.021 U/ml
- Lovenox ® Neutralized ([2]; 60 μg/ml Peptide, Citrate): 0.570 ± 0.033 U/ml
- Lovenox ® Neutralized ([2]; 120 μg/ml Peptide, A Plasma): 0.562 ± 0.035 U/ml
- Lovenox ® Neutralized ([2]; 120 μg/ml Peptide, B Plasma): 0.592 ± 0.037 U/ml
- Lovenox ® Neutralized ([2]; 120 μg/ml Peptide, C Plasma): 0.499 ± 0.16 U/ml
- Lovenox ® Neutralized ([2]; 120 μg/ml Peptide, Citrate): 0.480 ± 0.058 U/ml
- anti-LMWH effect in citrate compared with plasma [2]: greater anti-LMWH effect in citrate than in plasma
- effectiveness in neutralizing Lovenox in blood of patients [3]: neutralized Lovenox® in the blood of just one patient
- Lovenox ® Neutralized [3, 4]: 0.016 U/ml
- Lovenox ® Neutralized [3, 5]: 0.022 U/ml
- Lovenox ® Neutralized [3, 6]: 0 U/ml
- Lovenox ® Neutralized [3, 7]: 0.092 U/ml
- Lovenox ® Neutralized [3, 8]: 0.013 U/ml
- Lovenox ® Neutralized [3, 9]: 0.018 U/ml
- Lovenox ® Neutralized [3, 10]: 0.244 U/ml
- Lovenox ® Neutralized [3, 11]: 0.069 U/ml
- Lovenox ® Neutralized [3, 12]: 0.021 U/ml
